{"source": "paper PMC6325219", "about": "“Preclinical Characterization of NVR 3-778, a First-in-Class Capsid Assembly Modulator against Hepatitis B Virus” (Antimicrobial Agents and Chemotherapy, 2018)", "key": {"[1]": {"system": "HBV GT A", "test": "Transient-transfection antiviral study in HepG2 cells, GT A", "format": "cell-based", "details": "Hepatitis B virus, 72 h, 3 days, intracellular encapsidated rcDNA", "experimental": "(§4) Cells were cotransfected with the HBV plasmids (100 ng/well) and a Gaussia expression plasmid (10 ng/well) (Thermo Scientific) using the Lipofectamine LTX Plus transfection reagent (Life Technologies). Transfection mixtures were removed after overnight incubation, and cells were treated with serially diluted NVR 3-778 at a final dimethyl sulfoxide (DMSO) concentration of 0.5%. After 3 days of incubation with the compound, the supernatants were collected and secreted Gaussia luciferase was measured using a Gaussia Flash luciferase assay kit (Thermo Scientific). […] Samples were diluted into lysis buffer (Affymetrix) containing 2.5 µg proteinase K (Affymetrix) at 50°C for 40 min. Intracellular encapsidated HBV DNA was denatured for 30 min at 25°C in 0.2 M NaOH (Sigma) and incubated with HBV DNA probes designed to hybridize to the minus-strand HBV DNA (Affymetrix). The denatured DNA was subsequently detected using a QuantiGene assay kit, according to the branched DNA (bDNA) assay recommended by the manufacturer (Affymetrix)."}, "[2]": {"system": "HBV GT D", "test": "Transient-transfection antiviral study in HepG2 cells, GT D", "format": "cell-based", "details": "Hepatitis B virus, HepG2, 72 h, read-out: EC50 (mean), HBV GT D", "experimental": "as §4"}, "[3]": {"system": "HBV GT G", "test": "Transient-transfection antiviral study in HepG2 cells, GT G", "format": "cell-based", "details": "Hepatitis B virus, HepG2, 72 h, read-out: EC50 (mean), HBV GT G", "experimental": "as §4"}, "[4]": {"system": "HBV GT H", "test": "Transient-transfection antiviral study in HepG2 cells, GT H", "format": "cell-based", "details": "Hepatitis B virus, HepG2, 72 h, read-out: EC50 (mean), HBV GT H", "experimental": "as §4"}, "[5]": {"system": "HBV rtA181V variant", "test": "microbe, parasite or virus in culture", "format": "cell-based, hepatitis B virus", "details": "ratio of mean EC50 against variant over WT HBV, HepG2 cells", "source_text": "(§1) Plasmids containing HBV DNA with rtN236T, rtA181V, rtA181V/N236T, and rtL180M/M204V/N236T were generated using the GT B WT or rtL180M/M204V DNA-containing plasmids and site-directed mutagenesis (Agilent Technologies). A panel of nine different HBV core variants (cW102G, cW102R, cI105V, cI105L, cI105T, cT109S, cT109M, cT109I, and cY118F) was generated, also using the GT B WT DNA-containing plasmid and site-directed mutagenesis. The full-length genome from all plasmids was sequenced to confirm that only the intended nucleotide change(s) was present. Finally, HBV sequences from genotypes A (GenBank accession number AF305422), C (GenBank accession number AB033550), D (GenBank accession number V01460), E (GenBank accession number AB274971), F (GenBank accession number AB036912), G (GenBank accession number AF160501), and H (GenBank accession number AB375159) were gene synthesized as 1.1 times the genome length together with part of the CMV promoter at the 5′ end. The gene-synthesized piece was validated by sequencing and subcloned into the pCMV-HBV plasmid using the restriction sites SalI and NdeI (Genewiz, USA).\n(§2) HepG2 cells were seeded in 96-well plates at a density of 20,000 cells/well and allowed to attach overnight at 37°C in 5% CO2. Cells were cotransfected with the HBV plasmids (100 ng/well) and a Gaussia expression plasmid (10 ng/well) (Thermo Scientific) using the Lipofectamine LTX Plus transfection reagent (Life Technologies). Transfection mixtures were removed after overnight incubation, and cells were treated with serially diluted NVR 3-778 at a final dimethyl sulfoxide (DMSO) concentration of 0.5%. After 3 days of incubation with the compound, the supernatants were collected and secreted Gaussia luciferase was measured using a Gaussia Flash luciferase assay kit (Thermo Scientific). Cells were lysed with 0.33% NP-40 (Thermo Scientific), and the cytoplasmic fractions were treated with 2 units of Turbo DNase (Invitrogen) and 10 units of S7 nuclease (Roche) in CutSmart buffer (New England Biolabs) containing 25 µM CaCl2 (G-Biosciences) at 37°C for 60 min, followed by inactivation of the enzymes at 75°C for 15 min. Samples were diluted into lysis buffer (Affymetrix) containing 2.5 µg proteinase K (Affymetrix) at 50°C for 40 min. Intracellular encapsidated HBV DNA was denatured for 30 min at 25°C in 0.2 M NaOH (Sigma) and incubated with HBV DNA probes designed to hybridize to the minus-strand HBV DNA (Affymetrix). The denatured DNA was subsequently detected using a QuantiGene assay kit, according to the branched DNA (bDNA) assay recommended by the manufacturer (Affymetrix).\n(§3) To determine percent inhibition, the mean background signal from wells containing only culture medium was subtracted from the signal for all other samples, and percent inhibition at each compound concentration was calculated by normalization to the signals for HepG2.2.15 cells treated with 0.5% DMSO. […] Both CalcuSyn and MacSynergy II (Ann Arbor, MI) software were used to evaluate the effect of compound combinations ([27]). After data analysis at the 95% confidence level, values of synergy or antagonism of <25 µM^2% were defined as insignificant, those between 25 and 50 µM^2% were defined as minor, those between 50 and 100 µM^2% were defined as moderate, and those of >100 µM^2% were defined as strong."}, "[6]": {"system": "HBV rtA181V/N236T variant", "format": "cell-based, hepatitis B virus", "details": "ratio of mean EC50 against variant over WT HBV, HepG2 cells", "source_text": "as §1, §2, §3"}, "[7]": {"set-up": "method as in PMID 29079518", "details": "humanized mice; cited from earlier work"}, "[8]": {"system": "HBV", "set-up": "method as in PMID 30181376", "details": "metabolically active primary human hepatocytes; cited from earlier work"}}, "note": "Marks after values point to notes of the source that are not given here.", "data": [{"smiles": "O=C(Nc1cc(F)c(F)c(F)c1)c1ccc(F)c(S(=O)(=O)N2CCC(O)CC2)c1", "note": "[NVR 3-778]", "values": [{"measurement": "EC50", "setting": "[1]", "result": 380, "unit": "nM"}, {"measurement": "EC50", "setting": "[2]", "result": 430, "unit": "nM"}, {"measurement": "EC50", "setting": "[3]", "result": 250, "unit": "nM"}, {"measurement": "EC50", "setting": "[4]", "result": 580, "unit": "nM"}, {"measurement": "EC50 fold change, rtA181V", "setting": "[5]", "result": "0.82 ± 0.19^d fold"}, {"measurement": "EC50 fold change, rtA181V/N236T", "setting": "[6]", "result": "0.85 ± 0.26^d fold"}, {"measurement": "Plasma trough concentrations, all mice", "setting": "[7]", "result": "at least 3 µM"}, {"measurement": "Increase in EC50 against HBV DNA replication in the presence of serum proteins", "setting": "[8]", "result": "about 4 fold"}]}]}
